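Cultured in 96-well plates, cells were exposed to test compound for 48 hours across five concentrations. Here, GI50 denotes the concentration required for 50% inhibition of growth. TGI denotes the concentration required for complete inhibition of growth.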
Key:
Assay in all cases: NCI tumour cell line growth inhibition, 48 h
COLO 205 colon = tested on: COLO 205 colon
EKVX NSCLC = tested on: EKVX NSCLC
KM12 colon = tested on: KM12 colon
M14 melanoma = tested on: M14 melanoma
MCF7 breast = tested on: MCF7 breast
RPMI-8226 leukemia = tested on: RPMI-8226 leukemia
SF-268 CNS = tested on: SF-268 CNS
SN12C renal = tested on: SN12C renal
UACC-257 melanoma = tested on: UACC-257 melanoma
UACC-62 melanoma = tested on: UACC-62 melanoma

Compound | TGI (COLO 205 colon) [µM] | TGI (EKVX NSCLC) [µM] | TGI (KM12 colon) [µM] | TGI (M14 melanoma) [µM] | TGI (MCF7 breast) [µM] | TGI (RPMI-8226 leukemia) [µM] | TGI (SF-268 CNS) [µM] | TGI (SN12C renal) [µM] | TGI (UACC-257 melanoma) [µM] | TGI (UACC-62 melanoma) [µM] | GI50 (COLO 205 colon) [µM] | GI50 (EKVX NSCLC) [µM] | GI50 (KM12 colon) [µM] | GI50 (M14 melanoma) [µM] | GI50 (MCF7 breast) [µM] | GI50 (RPMI-8226 leukemia) [µM] | GI50 (SF-268 CNS) [µM] | GI50 (SN12C renal) [µM] | GI50 (UACC-257 melanoma) [µM] | GI50 (UACC-62 melanoma) [µM]
CSc1cc(-c2cccs2)sc1-c1cc(SC)c(-c2sc(-c3sc(-c4cccs4)cc3SC)cc2SC)s1 | > 100 | > 100 | > 100 | > 100 | > 100 | > 100 | > 100 | > 100 | > 100 | > 100 | – | – | – | – | – | – | – | – | – | –
Oc1cc(Cl)cc2cccnc12 | 26.1 | > 30.1 | > 100 | > 37.4 | 7.87 | 5.31 | > 39.5 | > 100 | > 29.9 | 7.49 | – | – | – | – | – | – | – | – | – | –
CC1(C)OC[C@@H](O)[C@H](C#N)CO1 | > 100 | > 100 | > 100 | > 100 | > 100 | > 100 | > 100 | > 100 | > 100 | > 100 | – | – | – | – | – | – | – | – | – | –
O=C1c2cc(-c3ccccc3)cnc2S(=O)(=O)N1c1ccc(Br)cc1 | > 100 | > 100 | > 100 | > 100 | > 100 | 82.2 | > 100 | > 100 | > 100 | > 100 | – | – | – | – | – | – | – | – | – | –
Cc1nn(-c2ccccc2)c2c1C(c1cc3ccccc3nc1Cl)NC(=O)N2 (stereo not given) | 41.1 | 88.8 | 53.1 | 42.4 | 73.9 | 61.4 | > 100 | 67.5 | 85.9 | 42.5 | – | – | – | – | – | – | – | – | – | –
CC(C)(C)[Si](C)(C)OCC1OC(n2ccc(=O)[nH]c2=O)C(O[Si](C)(C)C(C)(C)C)/C1=C/C#N (stereo not given) | 9.83 | > 100 | > 42.2 | > 100 | > 61.9 | > 100 | > 100 | 32.5 | > 100 | 2.75 | – | – | – | – | – | – | – | – | – | –
O=c1[nH][nH]c(=O)n1CCCCCCn1c(=O)[nH][nH]c1=O | > 100 | > 100 | > 100 | > 100 | > 100 | > 100 | > 100 | > 100 | > 100 | > 100 | – | – | – | – | – | – | – | – | – | –
O=C(CCn1ccnc1[N+](=O)[O-])NCCCn1ccnc1[N+](=O)[O-] | > 100 | > 100 | > 100 | > 100 | > 100 | > 100 | > 100 | > 100 | > 100 | > 100 | – | – | – | – | – | – | – | – | – | –
S=c1c2cn[nH]c2nc2scc(-c3ccc(Cl)cc3)n12 | 65.3 | 49.1 | 28.8 | 36.3 | 36.3 | 64.9 | 42.5 | 32 | > 100 | > 100 | – | – | – | – | – | – | – | – | – | –
O=C1C=C/C(=N\N=C(c2ccccc2)c2ccccc2)O1 | > 10 | > 10 | > 10 | > 10 | > 10 | > 10 | > 10 | > 10 | > 10 | > 10 | – | – | – | – | – | – | – | – | – | –
COc1ccc(N2C(=O)CC(=O)N(NC(=O)C(C)Oc3ccccc3C)C2=S)cc1 (stereo not given) | > 100 | > 100 | > 100 | > 100 | > 100 | > 100 | > 100 | > 100 | > 100 | > 100 | – | – | – | – | – | – | – | – | – | –
C=C1C(=O)CC2C1CC(=O)/C(C)=C/CCC(C)(O)C2O (stereo not given) | 7.49 | 34.3 | 29.8 | > 31.2 | 8.38 | > 37.9 | 35.6 | 5.32 | 12.6 | 14.8 | – | – | – | – | – | – | – | – | – | –
Cc1nc(C)c(N2CCN([N+](=O)[O-])CC2)c(=O)[nH]1 | > 100 | > 100 | > 100 | > 100 | > 100 | > 100 | > 100 | > 100 | > 100 | > 100 | – | – | – | – | – | – | – | – | – | –
Cc1cccc(C)c1NC(=O)C(Cc1c[nH]c2ccccc12)NC(=O)OCc1ccccc1 (stereo not given) | 27.6 | 45.3 | 57 | 31.7 | 95.8 | 55.3 | > 100 | 80.7 | 34 | 41.3 | – | – | – | – | – | – | – | – | – | –
O=[N+]([O-])C(=C(Nc1ccccc1)Nc1ccccc1)C(Cl)=C(Cl)Cl | 34.1 | 33.1 | > 55.5 | 36.1 | 34.4 | 65.9 | 40 | 35.5 | 30.7 | 32.2 | – | – | – | – | – | – | – | – | – | –
C[n+]1c(/C=C/c2c(O)ccc3ccccc23)ccc2ccccc21 | 10.8 | 12.9 | 11.2 | 12.8 | 7.89 | 10.1 | 16.7 | 13.6 | 14.9 | 12.2 | 4.07 | 4.72 | 4.33 | 5.8 | 1.12 | 1.73 | 7.19 | 6.08 | 7.17 | 5.77
